According to patent US20240174690A1, “ANNULATED 2-AMINO-3-CYANO THIOPHENES AND DERIVATIVES FOR THE TREATMENT OF CANCER” (BOEHRINGER INGELHEIM INTERNATIONAL GMBH, priority 2021, published 2024):
Read-outs that look alike come from different tables or passages of the source.

Experiments:
MKN1 cells = experiment: MKN1 CTG proliferation assay (120 h) (gastric cancer, wt amplified); type: cell-based
Outline: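 MKN1 gastric cancer cells (200–500 per well, RPMI + 10% FCS) given a logarithmic compound dose series and incubated 120 h. Viability by CellTiter-Glo luminescence as percent of DMSO controls. IC50 by four-parameter non-linear regression.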

SK-CO-1 cells = experiment: SK-CO-1 CTG proliferation assay (120 h) (CRC, G12V); type: cell-based; details: SK-CO-1 cells (CRC, G12V), CTG 120 h
Outline: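 SK-CO-1 colorectal cells (KRAS G12V), 500 per well in EMEM + 10% FCS, dosed with compound the day after seeding and grown 120 h at 37 °C. Viability by CellTiter-Glo luminescence as percent of DMSO control; IC50 from four-parameter non-linear regression.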

CYP3A4 = CYP3A4 (Homo sapiens (Human), UniProt P08684); experiment: Mechanism based inhibition of CYP3A4 assay (MBI 3A4); type: in vitro ADME; details: hydroxy-midazolam formation after 30 min vs 0 min preincubation, 25 uM, human liver microsomes
Sequence of CYP3A4 (P08684 whole entry): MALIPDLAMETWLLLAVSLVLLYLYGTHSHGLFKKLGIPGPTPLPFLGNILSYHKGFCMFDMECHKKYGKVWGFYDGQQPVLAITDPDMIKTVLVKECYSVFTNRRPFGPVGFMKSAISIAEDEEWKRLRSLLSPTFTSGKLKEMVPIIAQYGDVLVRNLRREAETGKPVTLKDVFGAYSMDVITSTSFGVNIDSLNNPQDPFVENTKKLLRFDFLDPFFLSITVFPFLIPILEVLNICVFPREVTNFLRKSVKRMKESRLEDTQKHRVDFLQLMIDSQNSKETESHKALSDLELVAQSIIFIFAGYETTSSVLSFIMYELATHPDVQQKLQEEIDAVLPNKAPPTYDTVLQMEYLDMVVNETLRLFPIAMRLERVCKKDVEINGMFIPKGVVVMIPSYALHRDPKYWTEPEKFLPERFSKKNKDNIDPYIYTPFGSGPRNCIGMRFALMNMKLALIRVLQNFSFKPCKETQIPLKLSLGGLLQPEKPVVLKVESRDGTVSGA
Outline: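 Human CYP3A4 activity after 30 min vs 0 min preincubation with test compound; incubate then diluted 1:10 and midazolam added for a 15 min main incubation. Quenched with acetonitrile; hydroxy-midazolam quantified by LC/MS-MS and expressed as % of the 0 min preincubation formation.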

[1] = Homo sapiens, MKN-1, assay 3, CTG 120 h, read-out: MKN1 (assay 3) IC50
[2] = Homo sapiens, MKN-1, assay 2, CTG 120 h, read-out: MKN1 (assay 2) IC50
[3] = Homo sapiens, MKN-1, assay 1, CTG 120 h, read-out: MKN1 (assay 1) IC50

Compound	IC50 (MKN1 cells; [1])	IC50 (SK-CO-1 cells; Homo sapiens)	MBI 3A4 (CYP3A4)	IC50 (MKN1 cells; [2])	IC50 (MKN1 cells; [3])	IC50 (MKN1 cells; assay 3, CTG 120 h, read-out: MKN1 (assay 3) IC50)	IC50 (SK-CO-1 cells)
C[C@H](Oc1cc(N2CCNC3(COC3)C2)nc(-c2onc3c2CCC[C@@]32CCCc3sc(N)c(C#N)c32)n1)[C@@H]1CCCN1C [I-4]	75 nM	541 nM	64%				
C[C@H](Oc1cc(-c2ccn(C)n2)nc(-c2onc3c2CCC[C@@]32CCCc3sc(N)c(C#N)c32)n1)[C@@H]1CCCN1C [I-21]			40%			149 nM	30 nM
C[C@H](Oc1cc(-c2cnsc2)nc(-c2onc3c2CCC[C@@]32CCCc3sc(N)c(C#N)c32)n1)[C@@H]1CCCN1C [I-27]	396 nM	52 nM	50%				
Cc1ccc(-c2cc(O[C@@H](C)[C@@H]3CCCN3C)nc(-c3onc4c3CCC[C@@]43CCCc4sc(N)c(C#N)c43)n2)cn1 [I-28]	1280 nM	131 nM	77%				
C[C@H](Oc1cc(-c2ccn(C3COC3)n2)nc(-c2onc3c2CCC[C@@]32CCCc3sc(N)c(C#N)c32)n1)[C@@H]1CCCN1C [I-34]	693 nM	84 nM	67%				
C[C@H](Oc1cc(N2CCN(C)C3(CC3)C2)nc(-c2onc3c2CCC[C@@]32CCCc3sc(N)c(C#N)c32)n1)[C@@H]1C[C@@H](F)CN1C [I-39]		2070 nM	37%	621 nM			
CO[C@H]1CCN(C)[C@@H]1[C@H](C)Oc1cc(-n2ccc(CC(=O)NC(C)C)n2)nc(-c2onc3c2CCC[C@@]32CCCc3sc(N)c(C#N)c32)n1 [I-48]	17 nM	14 nM					
CO[C@H]1CCN(C)[C@@H]1[C@H](C)Oc1cc(N2CCNC3(CC3)C2)nc(-c2onc3c2CCC[C@@]32CCCc3sc(N)c(C#N)c32)n1 [I-49]	152 nM	515 nM		335 nM			
CO[C@@H]1C[C@@H]([C@H](C)Oc2cc(N3CCN(C)C4(CC4)C3)nc(-c3onc4c3CCC[C@@]43CCCc4sc(N)c(C#N)c43)n2)N(C)C1 [I-50]	627 nM	2050 nM		785 nM			
CO[C@H]1CCN(C)[C@@H]1[C@H](C)Oc1cc(-n2ccc(C(=O)N[C@@H]3CCOC3)n2)nc(-c2onc3c2CCC[C@@]32CCCc3sc(N)c(C#N)c32)n1 [I-53]	48 nM	7 nM					
CO[C@H]1CCN(C)[C@@H]1[C@H](C)Oc1cc(-n2ccc(C(=O)N[C@H]3CCOC3)n2)nc(-c2onc3c2CCC[C@@]32CCCc3sc(N)c(C#N)c32)n1 [I-54]	26 nM	7 nM					
COCCNC(=O)c1ccn(-c2cc(O[C@@H](C)[C@@H]3[C@@H](OC)CCN3C)nc(-c3onc4c3CCC[C@@]43CCCc4sc(N)c(C#N)c43)n2)n1 [I-55]	39 nM	9 nM					
C[C@H](Oc1cc(-n2ccc(C(=O)N[C@H]3CCOC3)n2)nc(-c2onc3c2CCC[C@@]32CCCc3sc(N)c(C#N)c32)n1)[C@@H]1CCCN1C [I-57]	19 nM	4 nM					
COCCNC(=O)c1ccn(-c2cc(O[C@@H](C)[C@@H]3CCCN3C)nc(-c3onc4c3CCC[C@@]43CCCc4sc(N)c(C#N)c43)n2)n1 [I-58]	17 nM	14 nM			25 nM		
C[C@H](NC(=O)c1ccn(-c2cc(O[C@@H](C)[C@@H]3CCCN3C)nc(-c3onc4c3CCC[C@@]43CCCc4sc(N)c(C#N)c43)n2)n1)c1ccccn1 [I-59]	26 nM	5 nM					
C[C@H](Oc1cc(-n2ccc(C(=O)N(C)C3COC3)n2)nc(-c2onc3c2CCC[C@@]32CCCc3sc(N)c(C#N)c32)n1)[C@@H]1CCCN1C [I-60]	32 nM	21 nM					
C[C@H](Oc1cc(N2CC3CCC(C2)N3)nc(-c2noc3c2CCC[C@@]32CCCc3sc(N)c(C#N)c32)n1)[C@@H]1CCCN1C [II-34]	453 nM	1240 nM	83%				

More lines, main results first:

IC50 (MKN1 cells; [1])	IC50 (SK-CO-1 cells; Homo sapiens)	MBI 3A4 (CYP3A4)	IC50 (MKN1 cells; [2])	IC50 (MKN1 cells; [3])	Compound	IC50 (MKN1 cells; assay 3, CTG 120 h, read-out: MKN1 (assay 3) IC50)	IC50 (SK-CO-1 cells)
1260 nM	1660 nM	80%			C[C@H](Oc1cc(N2C[C@@H](N(C)C)[C@@H](O)C2)nc(-c2noc3c2CCC[C@@]32CCCc3sc(N)c(C#N)c32)n1)[C@@H]1CCCN1C [II-10]		
460 nM	819 nM	78%			C[C@H](Oc1cc(N2CC[C@H](N3CCCCC3)C2)nc(-c2noc3c2CCC[C@@]32CCCc3sc(N)c(C#N)c32)n1)[C@@H]1CCCN1C [II-12]		
	444 nM		279 nM		C[C@H](Oc1cc(N2C[C@H](C)NC3(CC3)C2)nc(-c2noc3c2CCC[C@@]32CCCc3sc(N)c(C#N)c32)n1)[C@@H]1C[C@@H](F)CN1C [II-18]		
47 nM	11 nM				C[C@H](Oc1cc(-n2ccc(C(=O)N3CCCC3)n2)nc(-c2noc3c2CCC[C@@]32CCCc3sc(N)c(C#N)c32)n1)[C@@H]1CCCN1C [II-19]		
	9 nM	63%		24 nM	CNC(=O)c1ccn(-c2cc(O[C@@H](C)[C@@H]3CCCN3C)nc(-c3noc4c3CCC[C@@]43CCCc4sc(N)c(C#N)c43)n2)n1 [II-20]		
24 nM	6 nM	77%	27 nM	20 nM	C[C@H](Oc1cc(-n2ccc(C(N)=O)n2)nc(-c2noc3c2CCC[C@@]32CCCc3sc(N)c(C#N)c32)n1)[C@@H]1CCCN1C [II-21]		
172 nM	31 nM				CCOC(=O)c1ccn(-c2cc(O[C@@H](C)[C@@H]3CCCN3C)nc(-c3noc4c3CCC[C@@]43CCCc4sc(N)c(C#N)c43)n2)n1 [II-23]		
116 nM	115 nM	71%			C[C@H](Oc1cc(-c2ccn(C)n2)nc(-c2noc3c2CCC[C@@]32CCCc3sc(N)c(C#N)c32)n1)[C@@H]1C[C@@H](F)CN1C [II-27]		
30 nM	365 nM	65%			C[C@H](Oc1cc(N2CCNC3(COC3)C2)nc(-c2noc3c2CCC[C@@]32CCCc3sc(N)c(C#N)c32)n1)[C@@H]1CCCN1C [II-31]		
1480 nM	1790 nM				C[C@H](Oc1cc(N2CCNCC2)nc(-c2noc3c2CCC[C@@]32CCCc3sc(N)c(C#N)c32)n1)[C@@H]1CCCN1C [II-45]		
245 nM	398 nM		451 nM		[2H]C([2H])([2H])N1C[C@H](F)C[C@H]1[C@H](C)Oc1cc(N2CCNC3(CC3)C2)nc(-c2noc3c2CCC[C@@]32CCCc3sc(N)c(C#N)c32)n1 [II-208]		
670 nM	1390 nM				[2H]C([2H])([2H])N1C[C@H](F)C[C@H]1[C@H](C)Oc1cc(N2CCN(C)C3(CC3)C2)nc(-c2noc3c2CCC[C@@]32CCCc3sc(N)c(C#N)c32)n1 [II-209]		
